Experimental data taken from patent US20220008296A1, “CAPSULE FORMULATION” (Capsugel Belgium NV, priority 2014, published 2022).

Legend:
[1] = acid resistance experiment: litmus colour inside oil-filled, band-sealed DRcaps capsule submerged in acid; assay type: physicochemical; parameters: key to Result (color): −: almost all red/unsuitable; +: about half red/passable; ++: all blue/excellent; conditions: for liquid color / acidification inside the capsule (in words) / Result (color): 120 minutes after submersion in JP first liquid pH1.2, 37°; for liquid color / acidification inside the capsule (in words): Example 2; for Result (color): colour of litmus powder in the fill of a DRcaps capsule, n=3
Description: The fine powder of a litmus reagent that changes to red in response to acid (blue, Wako Pure Chemical Industries Ltd. high grade), used as an active ingredient, is dispersed or dissolved in 0.2% by weight each of MCT, which is an edible oil (medium chain fatty acid triglyceride, coconad MT (made by Kao Co.) and glycerin, which is a water-based edible additive (made by Kao Co.) (dissolves very readily in water, comparative example). Then, 300 μL each of this solution is loaded into the separated body portion of an acid resistant hard capsule made by Capsugel (DRcaps (trademark), size no. 2, transparent no color). Then, a capsule formulation is prepared by sealing the fitted part of the cap portion and the body portion of the hard capsule using a band sealing solution (see FIG. 1). It should be noted that the band sealing solution is produced based on the information described in International Application PCT/US2013/041838 (application date May 20, 2013) (title of invention “ACID RESISTANT BANDING SOLUTION FOR TWO PIECE HARD CAPSULES”) wherein US Patent Application No. 61/707,135 (application date: Sep. 28, 2012) forms the basic application, which is an undisclosed application. The composition of the band sealing solution is ethanol: 59.9% by weight, shellac: 37.0% by weight, water: 1.6% by weight, and surfactant (sorbitan fatty acid aster and glycerin fatty acid ester) 1.5% by weight.
These capsule formulations are wrapped in wire to prevent the capsule formulations from floating up, and submerged in the first liquid (pH1.2 liquid) in the Japanese Pharmacopoeia which is maintained at 37° to simulate the gastric acid inside a living organism.
The experiment was carried out with the same conditions used in example 1 (amount of oil, measurement conditions, measurement time, and the like), and the effect on acid resistance when another oil or surfactant is enclosed in the capsule was examined. In this example, the following criteria were determined based on the color of the fine litmus powder dissolved or dispersed in oil enclosed in a capsule.
These capsule formulations were wrapped in wire to prevent the capsule formulations from floating up, and submerged in the first liquid (pH1.2 liquid) in the Japanese Pharmacopoeia maintained at 37° to simulate the gastric acid inside a living organism. The color of the liquid in the capsule 120 minutes after submersion is shown (see FIG. 4).
It should be noted that because the four oils, DHA, rice germ oil, vitamin E, and vitamin A, are light yellow to dark green, visually confirming the change of the fine litmus powder from blue to red due to acid seeping into oil within the capsule was difficult. Therefore, the color was confirmed by enlarging the litmus particles dispersed within the oil from outside the capsule using a microscope. The determination criteria for this was the same as described above (see FIG. 5).

[2] = cited from earlier work

Compound | liquid color / acidification inside the capsule (in words) [1] | Result (color) [1] | Specific Gravity (25° C.) [2] | liquid color in the capsule ([1]; after 20 minutes in JP first liquid pH1.2, 37°, Example 1)
Sorbitan fatty acid ester | the entire inside of the capsule turned red | − | 0.95 | 
Glycerin fatty acid ester | the entire inside of the capsule turned red | − | 1.02 | 
OCC(O)CO [Glycerin, reference compound] | the entire inside of the capsule turned red | − | 1.264 | the entire inside of the capsule turned red
Vitamin A | the interior of the capsule did not become acidic | ++ | 0.92 | 
